Here are results for 2 compounds from ChEMBL document CHEMBL5325453, “Isolation and identification of the new baicalin target protein to develop flavonoid structure-based therapeutic agents” (Bioorg Med Chem, 2023).

The target of assay [1] is T1, Glyceraldehyde-3-phosphate dehydrogenase (Homo sapiens, UniProt P04406). The assay is described as follows: Binding affinity to human recombinant GAPDH assessed as equilibrium binding constant at 310 K incubated for 30 mins by fluorescence quenching assay.
Target sequence in this assay (P04406 2-335 limits assumed): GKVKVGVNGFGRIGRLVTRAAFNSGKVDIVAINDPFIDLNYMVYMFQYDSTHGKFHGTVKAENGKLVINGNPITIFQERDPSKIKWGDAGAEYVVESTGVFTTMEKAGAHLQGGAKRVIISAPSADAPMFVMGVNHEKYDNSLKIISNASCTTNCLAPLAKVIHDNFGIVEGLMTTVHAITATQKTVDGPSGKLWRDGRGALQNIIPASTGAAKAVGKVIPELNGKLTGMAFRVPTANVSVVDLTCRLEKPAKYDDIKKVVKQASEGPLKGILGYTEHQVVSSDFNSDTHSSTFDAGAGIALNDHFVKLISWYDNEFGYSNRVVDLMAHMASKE
The target of assay [2] is T1, Glyceraldehyde-3-phosphate dehydrogenase. The assay is described as follows: Binding affinity to human recombinant GAPDH assessed as equilibrium binding constant at 298 K incubated for 30 mins by fluorescence quenching assay.
Target sequence in this assay (P04406 2-335 limits assumed): as above
Assay [3] has the same target. Kind of assay: Binding affinity to human recombinant GAPDH assessed as change in gibbs free energy at 310 K incubated for 30 mins by fluorescence quenching assay.
Target sequence in this assay (P04406 2-335 limits assumed): as above
Assay [4] has the same target. Kind of assay: Inhibition of human recombinant GADPH incubated for 30 mins by absorbance based assay.
Target sequence in this assay (P04406 whole entry): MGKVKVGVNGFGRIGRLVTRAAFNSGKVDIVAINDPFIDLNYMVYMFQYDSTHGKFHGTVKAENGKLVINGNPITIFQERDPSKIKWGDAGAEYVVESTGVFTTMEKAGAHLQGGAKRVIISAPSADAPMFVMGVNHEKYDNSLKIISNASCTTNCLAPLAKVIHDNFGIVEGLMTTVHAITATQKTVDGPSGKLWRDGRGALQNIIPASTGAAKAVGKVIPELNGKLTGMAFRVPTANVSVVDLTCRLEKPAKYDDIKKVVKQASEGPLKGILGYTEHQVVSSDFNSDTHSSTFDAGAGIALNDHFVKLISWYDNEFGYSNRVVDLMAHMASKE
The target is the same in assay [5]. The assay is described as follows: Binding affinity to human recombinant GAPDH assessed as Stem-Volmer quenching constant at 298 K incubated for 30 mins by fluorescence quenching assay.
Target sequence in this assay (P04406 2-335 limits assumed): as the sequence (P04406 2-335 limits assumed) above
For assay [6] the target is unchanged. Kind of assay: Binding affinity to human recombinant GAPDH assessed as change in enthalpy at 298 K incubated for 30 mins by fluorescence quenching assay.
Target sequence in this assay (P04406 2-335 limits assumed): as above
For assay [7] the target is unchanged. The assay is described as follows: Binding affinity to human recombinant GAPDH assessed as change in gibbs free energy at 298 K incubated for 30 mins by fluorescence quenching assay.
Target sequence in this assay (P04406 2-335 limits assumed): as above
Assay [8] has the same target. Kind of assay: Binding affinity to human recombinant GAPDH assessed as change in entropy at 298 K incubated for 30 mins by fluorescence quenching assay.
For assay [9] the target is unchanged. Kind of assay: Binding affinity to human recombinant GAPDH incubated for 30 mins by fluorescence quenching assay. To be noted: dose <= 50.0 µM.
The target is the same in assay [10]. Kind of assay: Binding affinity to human recombinant GAPDH assessed as Stem-Volmer quenching constant at 310 K incubated for 30 mins by fluorescence quenching assay.

As to `O=c1cc(-c2ccccc2)oc2cc(O)c(O)c(O)c12` [BAICALEIN], the Kb in [1] amounted to 341 M⁻¹; in assay [2], 427 M⁻¹. In addition, the deltaG in assay [3] and in assay [7] was -3.59 kcal/mol throughout. Moreover, in [4], the IC50 was 43.9 µM. The results for the KSV in assay [5] and in [10] were 26.7 µM⁻¹ and 26.3 µM⁻¹, respectively. In assay [6], the deltaH is -3.42 kcal/mol. Also, the deltaS in [8] is 2.38 J/mol/K. In addition, in [9], the Activity entry is “Dose-Dependent Effect”.
`O=C(O)[C@H]1O[C@@H](Oc2cc3oc(-c4ccccc4)cc(=O)c3c(O)c2O)[C@H](O)[C@@H](O)[C@@H]1O` [BAICALIN]: the Kb in assay [1] worked out at 634 M⁻¹; in assay [2] it was 2270 M⁻¹. Moreover, the figures for the deltaG in assay [3] and in assay [7] were -3.97 kcal/mol and -4.58 kcal/mol, respectively. Moreover, in assay [4], the IC50 turned out to be 40.9 µM. Besides, the KSV in assay [5] is 27.3 µM⁻¹; in [10], 17.4 µM⁻¹. Moreover, in assay [6], the deltaH is -19.5 kcal/mol. Further, the deltaS in [8] is -210 J/mol/K. For the same compound, the Activity result in assay [9] was “Dose-Dependent Effect”.

In general, IC50 refers to the concentration needed to halve the response being measured.
